Source: ChEMBL document CHEMBL2074051, “Ranking of P-glycoprotein substrates and inhibitors by a calcein-AM fluorometry screening assay” (Anticancer Drugs, 1996)
Non-standard residues stand in square brackets, D forms with d. Residues, ends and D or L forms follow the SMILES beside them. *: point of attachment. NMeI = CC[C@H](C)[C@H](NC)C(=O)O; NMeD = CN[C@@H](CC(=O)O)C(=O)O; NMeV = CN[C@H](C(=O)O)C(C)C; Pip = O=C(O)[C@@H]1CCCCN1; dLac = C[C@@H](O)C(=O)O; OtBu = CC(C)(C)O*

Assays:
Assay type in all cases: functional, cell-based
[1] = target: T1, ATP-dependent translocase ABCB1 (P-glycoprotein) (Homo sapiens, UniProt P08183); assay: (§1) TP_TRANSPORTER: increase in Calcein-AM intracellular accumulation (Calcein-AM: 0.25 uM) in MDR-CEM cells; details: human, MDR-CEM cells, probe Calcein-AM
[2] = target: T1, ATP-dependent translocase ABCB1 (P-glycoprotein); assay: TP_TRANSPORTER: increase in Calcein-AM intracellular accumulation (Calcein-AM: 0.25 uM) in MDR-P388 cells; details: mouse, probe Calcein-AM
[3] = target: ATP-dependent translocase ABCB1 (Homo sapiens, UniProt P08183); assay: as §1
Chain of ATP-dependent translocase ABCB1 (P08183 whole entry): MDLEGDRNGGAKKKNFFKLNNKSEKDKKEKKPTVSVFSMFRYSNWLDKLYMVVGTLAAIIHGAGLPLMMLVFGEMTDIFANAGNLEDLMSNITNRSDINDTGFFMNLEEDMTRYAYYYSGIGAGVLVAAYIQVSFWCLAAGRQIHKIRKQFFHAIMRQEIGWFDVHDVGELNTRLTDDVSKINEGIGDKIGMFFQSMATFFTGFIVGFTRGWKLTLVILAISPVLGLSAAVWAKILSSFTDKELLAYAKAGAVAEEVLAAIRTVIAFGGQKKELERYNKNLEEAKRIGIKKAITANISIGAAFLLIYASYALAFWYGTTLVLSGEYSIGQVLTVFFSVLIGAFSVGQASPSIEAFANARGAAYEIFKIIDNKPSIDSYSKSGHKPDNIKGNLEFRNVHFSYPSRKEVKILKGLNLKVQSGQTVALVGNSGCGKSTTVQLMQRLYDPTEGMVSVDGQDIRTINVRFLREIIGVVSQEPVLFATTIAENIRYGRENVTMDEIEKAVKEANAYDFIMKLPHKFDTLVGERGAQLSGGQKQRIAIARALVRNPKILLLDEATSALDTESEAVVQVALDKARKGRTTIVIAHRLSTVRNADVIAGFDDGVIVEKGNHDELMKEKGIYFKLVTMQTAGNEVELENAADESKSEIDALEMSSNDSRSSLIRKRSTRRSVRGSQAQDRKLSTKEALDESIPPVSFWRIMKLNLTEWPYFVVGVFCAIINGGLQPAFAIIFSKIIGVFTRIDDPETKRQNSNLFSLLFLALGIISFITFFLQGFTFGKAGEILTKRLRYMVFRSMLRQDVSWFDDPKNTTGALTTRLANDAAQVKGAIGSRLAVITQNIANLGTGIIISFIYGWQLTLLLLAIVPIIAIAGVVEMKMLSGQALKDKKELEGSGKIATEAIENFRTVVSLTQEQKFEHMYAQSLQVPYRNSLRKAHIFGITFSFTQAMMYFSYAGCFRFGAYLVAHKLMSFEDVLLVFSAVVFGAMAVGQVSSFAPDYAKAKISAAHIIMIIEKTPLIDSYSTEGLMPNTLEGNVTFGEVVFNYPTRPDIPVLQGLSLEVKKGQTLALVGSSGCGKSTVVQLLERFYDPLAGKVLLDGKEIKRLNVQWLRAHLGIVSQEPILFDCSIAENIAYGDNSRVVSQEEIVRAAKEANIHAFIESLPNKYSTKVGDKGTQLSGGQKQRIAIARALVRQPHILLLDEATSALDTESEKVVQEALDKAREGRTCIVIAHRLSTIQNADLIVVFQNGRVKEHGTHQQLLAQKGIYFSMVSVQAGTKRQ

T1 sequence (P08183 whole entry): as above

Row | EC50 [1] [nM] | EC50 [2] [nM] | EC50 [3] [µM] | SMILES
1 | 220 | 60 | – | CC[C@H](C)[C@H]1C(=O)NCC(=O)N(C)[C@@H](C(C)C)C(=O)N[C@@H](Cc2ccc(OC)cc2)C(=O)O[C@H](C)C(=O)N2CCCC[C@H]2C(=O)N(C)[C@@H](C(C)C)C(=O)N[C@@H](C(C)C)C(=O)N(C)[C@@H](CC(=O)OC(C)(C)C)C(=O)N(C)[C@@H]([C@@H](C)CC)C(=O)N1C (cyclo(G[NMeV]Y(Me)[dLac][Pip][NMeV]V[NMeD](OtBu)[NMeI][NMeI]))
2 | – | – | 14.4 | CCN(CC)CCCC(C)Nc1c2ccc(Cl)cc2nc2ccc(OC)cc12 (stereo not drawn) [QUINACRINE]
